Assays:
DYRK1B [1] = molecular target: T1, DYRK1B (Homo sapiens, UniProt Q9Y463); experiment: KdELECT kinase binding assay (Eurofins), DYRK1B; settings: 11-point 3-fold dilution series, qPCR readout; read-out: Binding Affinity (Kd) DYRK1B
T1 construct: purchased Eurofins; host or cells: E. coli BL21-derived (T7 phage display) or HEK-293
Experimental: (§1) KDs were obtained from Eurofins who used the following procedure: Kinase tagged T7 phase strains were prepared in an E. coli host derived from the BL21 strain. E. coli were grown to log-phase and infected with T7 phage and incubated with shaking at 32° C. until lysis. The lysates were centrifuged and filtered to remove cell debris. The remaining kinases were produced in HEK-293 cells and subsequently tagged with DNA for qPCR detection. Streptavidin-coated magnetic beads were treated with biotinylated small molecule ligands for 30 minutes at room temperature to generate affinity resins for kinase assays. The liganded beads were blocked with excess biotin and washed with locking buffer (SeaBlock (Pierce), 1% BSA, 0.05% Tween 20, 1 mM DTT) to remove unbound ligand and to reduce non-specific binding. Binding reactions were assembled by combining kinases, liganded affinity beads, and test compounds in 1× binding buffer (20% SeaBlock, 0.17× PBS, 0.05% Tween 20, 6 mM DTT). Test compounds were prepared as 111X stocks in 100% DMSO. Kds were determined using a 11-poin 3-fold compound dilution series with three DMSO control points. All compounds for Kd measurements are distributed by acoustic transfer (non-contact dispensing) in 100% DMSO. The compounds were then diluted directly into the assays such that the final concentration of DMSO was 0.9%. All reactions performed in polypropylene 384-well plate. Each was a final volume of 0.02 mL. The assay plates were incubated at room temperature with shaking for 1 hour and the affinity beads were washed with wash buffer (1×PBS, 0.05% Tween 20). The beads were then resuspended in elution buffer (1X PBS, 0.05% Tween 20, 0.5 µM nonbiotinylated affinity ligand) and incubated at room temperature with shaking for 30 minutes. The kinase concentration in the eluates was measured by qPCR.

DYRK1A [2] = molecular target: T2, DYRK1A (Homo sapiens, UniProt Q13627); experiment: KdELECT kinase binding assay (Eurofins), DYRK1A; settings: 11-point 3-fold dilution series, qPCR readout; read-out: Binding Affinity (Kd) DYRK1A
T2 construct: purchased Eurofins; host or cells: E. coli BL21-derived (T7 phage display) or HEK-293
Experimental: as §1

DYRK1A [3] = molecular target: T2, DYRK1A; experiment: HiBiT split luciferase assay of targeted degradation of DYRK1A in Flp-In T-REx 293 cells; type: cell-based; settings: 300 nM compound, 24 h, HiBiT-tagged DYRK1A in Flp-In T-REx 293 cells, normalized to vehicle; read-out: Relative Degradation at 300 nM DYRK1A
From the text: (§2) The Flp-In T-REx 293 Cell Line and the pcDNA5/FRT/TO vector (Invitrogen) were used to generate stable cell clones for tetracyclin-inducible expression of DYRK1A and DYRK1B. These cells contain a single stably integrated Flp recognition target (FRT) site, which allows for site-specific integration of the expression cassette by the Flp (Flippase) recombinase. DYRK1 constructs were designed to contain a C-terminal HiBiT tag for quantitative detection of HiBiT-tagged proteins in cellular lysates with the help a split luciferase assay (Nano-Glo HiBiT Lytic Detection System, Promega). To monitor the targeted degradation of DYRK1A or DYRK1B, cells were seeded in 96-well plates (10,000 cells/per well) and treated with doxycyclineinal concentration 2 μg/ml) to induce DYRK1 expression. Compounds with presumed PROTAC activity were administered 24 h after seeding. After further incubation for 24 h, cells were grossly and microscopically inspected for overt toxicity. Cells were lysed in 100 μL ice-cold passive lysis buffer (PLB, Promega) by orbital shaking (30 min on ice) before lysates were centrifuged in PCR tube (20 min 20,000 g, RT). A 10 μl aliquot of the supernatant was subjected to the HiBiT lytic assay. Luminescence was quantified in an Orion Microplate luminometer (Berthold Detection System, Germany). All compounds were tested in duplicate or triplicate wells (technical replicates) and at least two independent experiments. Relative degradation was calculated by normalization to vehicle-treated control samples.

DYRK1B [4] = molecular target: T1, DYRK1B; experiment: HiBiT split luciferase assay of targeted degradation of DYRK1B in Flp-In T-REx 293 cells; type: cell-based; settings: 300 nM compound, 24 h, HiBiT-tagged DYRK1B in Flp-In T-REx 293 cells, normalized to vehicle; read-out: Relative Degradation at 300 nM DYRK1B
From the text: as §2

T1 sequence (Q9Y463 whole entry, species assumed): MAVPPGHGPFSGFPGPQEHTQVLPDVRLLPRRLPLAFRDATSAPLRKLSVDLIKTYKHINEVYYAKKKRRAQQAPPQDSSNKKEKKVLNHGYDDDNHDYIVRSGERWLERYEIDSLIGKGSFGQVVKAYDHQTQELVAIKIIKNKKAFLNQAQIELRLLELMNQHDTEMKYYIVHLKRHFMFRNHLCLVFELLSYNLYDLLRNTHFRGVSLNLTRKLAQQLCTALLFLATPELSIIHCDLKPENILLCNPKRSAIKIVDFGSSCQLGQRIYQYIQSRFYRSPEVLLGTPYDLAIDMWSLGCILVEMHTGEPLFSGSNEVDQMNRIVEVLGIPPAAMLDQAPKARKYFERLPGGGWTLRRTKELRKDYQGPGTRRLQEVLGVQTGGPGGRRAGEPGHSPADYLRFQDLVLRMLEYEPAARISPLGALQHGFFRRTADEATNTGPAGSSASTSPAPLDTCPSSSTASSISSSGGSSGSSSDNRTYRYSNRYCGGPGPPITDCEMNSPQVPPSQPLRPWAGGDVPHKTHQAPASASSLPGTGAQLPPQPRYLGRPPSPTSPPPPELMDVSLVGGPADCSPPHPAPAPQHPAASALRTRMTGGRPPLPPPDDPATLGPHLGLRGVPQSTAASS

| SMILES | Kd (DYRK1B [1]) [nM] | Kd (DYRK1A [2]) [nM] | inhibition at 0.3 µM (DYRK1A [3]) [%] | inhibition at 0.3 µM (DYRK1B [4]) [%] |
| --- | --- | --- | --- | --- |
| Cc1nc2ccc(-c3ccnc(N)c3)nc2n1-c1cc(Cl)c(N2CCN(CC#Cc3ccc(N4CCC(C(=O)N5CCC(n6cc(CNc7cccc8c7C(=O)N(C7CCC(=O)NC7=O)C8=O)cn6)CC5)CC4)nc3)CC2)c(Cl)c1 (stereo not drawn) [Compound 27, 4-(((1-(1-(1-(5-(3-(4-(4-(5-(2-aminopyridin-4-yl)-2-methyl-3H-imidazo[4,5-b]pyridin-3-yl)-2,6-dichlorophenyl)piperazin-1-yl)prop-1-yn-1-yl)pyridin-2-yl)piperidine-4-carbonyl)piperidin-4-yl)-1H-pyrazol-4-yl)methyl)amino)-2-(2,6-dioxopiperidin-3-yl)isoindoline-1,3-dione] | – | – | > 60 | < 30 |
| Cc1nc2ccc(-c3ccnc(N)c3)nc2n1-c1ccc(N2CCN(CC#Cc3ccc(N4CCC(C(=O)N5CCC(n6cc(CNc7cccc8c7C(=O)N(C7CCC(=O)N(C)C7=O)C8=O)cn6)CC5)CC4)nc3)CC2)c(F)c1 (stereo not drawn) [Compound 31, 4-(((1-(1-(1-(5-(3-(4-(4-(5-(2-aminopyridin-4-yl)-2-methyl-3H-imidazo[4,5-b]pyridin-3-yl)-2-fluorophenyl)piperazin-1-yl)prop-1-yn-1-yl)pyridin-2-yl)piperidine-4-carbonyl)piperidin-4-yl)-1H-pyrazol-4-yl)methyl)amino)-2-(1-methyl-2,6-dioxopiperidin-3-yl)isoindoline-1,3-dione] | – | – | < 30 | < 30 |
| Cc1nc2ccc(-c3ccnc(N)c3)nc2n1-c1ccc(N2CCN(C(=O)CCCN3CCN(Cc4ccc(CNc5cccc6c5CN(C5CCC(=O)NC5=O)C6=O)cc4)CC3)CC2)c(F)c1 (stereo not drawn) [Compound 12, 3-(4-((4-((4-(4-(4-(4-(5-(2-aminopyridin-4-yl)-2-methyl-3H-imidazo[4,5-b]pyridin-3-yl)-2-fluorophenyl)piperazin-1-yl)-4-oxobutyl)piperazin-1-yl)methyl)benzyl)amino)-1-oxoisoindolin-2-yl)piperidine-2,6-dione] | < 10 | < 10 | 30 to 60 | – |
| Cc1nc2ccc(-c3ccnc(N)c3)nc2n1-c1ccc(N2C[C@H]3CN(CC#Cc4ccc(N5CCC(C(=O)N6CCC(n7cc(CNc8cccc9c8C(=O)N(C8CCC(=O)NC8=O)C9=O)cn7)CC6)CC5)nc4)C[C@H]3C2)c(F)c1 (stereo partly drawn) [Compound 22, 4-(((1-(1-(1-(5-(3-((3aR,6aS)-5-(4-(5-(2-aminopyridin-4-yl)-2-methyl-3H-imidazo[4,5-b]pyridin-3-yl)-2-fluorophenyl)hexahydropyrrolo[3,4-c]pyrrol-2 (1H)-yl)prop-1-yn-1-yl)pyridin-2-yl)piperidine-4-carbonyl)piperidin-4-yl)-1H-pyrazol-4-yl)methyl)amino)-2-(2,6-dioxopiperidin-3-yl)isoindoline-1,3-dione] | – | – | 30 to 60 | < 30 |
| Cc1nc2ccc(-c3ccnc(N)c3)nc2n1-c1ccc(N2CCN(CCOCCOCCOCCOCCNc3cc4c(cc3F)C(=O)N(C3CCC(=O)NC3=O)C4=O)CC2)c(F)c1 (stereo not drawn) [Compound 13, 5-((14-(4-(4-(5-(2-aminopyridin-4-yl)-2-methyl-3H-imidazo[4,5-b]pyridin-3-yl)-2-fluorophenyl)piperazin-1-yl)-3,6,9,12-tetraoxatetradecyl)amino)-2-(2,6-dioxopiperidin-3-yl)-6-fluoroisoindoline-1,3-dione] | 10 to 100 | 10 to 100 | < 30 | – |

The remaining lines, values ahead:

| Kd (DYRK1B [1]) [nM] | Kd (DYRK1A [2]) [nM] | inhibition at 0.3 µM (DYRK1A [3]) [%] | inhibition at 0.3 µM (DYRK1B [4]) [%] | SMILES |
| --- | --- | --- | --- | --- |
| 10 to 100 | 10 to 100 | > 60 | > 50 | Cc1nc2ccc(-c3ccnc(N)c3)nc2n1-c1ccc(N2CCN(CCC#Cc3ccc(N4CCC(C(=O)N5CCC(n6cc(CNc7cccc8c7C(=O)N(C7CCC(=O)NC7=O)C8=O)cn6)CC5)CC4)nc3)CC2)c(F)c1 (stereo not drawn) [Compound 19, 4-(((1-(1-(1-(5-(4-(4-(4-(5-(2-aminopyridin-4-yl)-2-methyl-3H-imidazo[4,5-b]pyridin-3-yl)-2-fluorophenyl)piperazin-1-yl)but-1-yn-1-yl)pyridin-2-yl)piperidine-4-carbonyl)piperidin-4-yl)-1H-pyrazol-4-yl)methyl)amino)-2-(2,6-dioxopiperidin-3-yl)isoindoline-1,3-dione] |
| < 10 | < 10 | < 30 | – | Cc1nc2ccc(-c3ccnc(N)c3)nc2n1-c1ccc(N2CCN(C(=O)CCCCN3CCN(Cc4ccc(CNc5cccc6c5CN(C5CCC(=O)NC5=O)C6=O)cc4)CC3)CC2)c(F)c1 (stereo not drawn) [Compound 14, 3-(4-((4-((4-(5-(4-(4-(5-(2-aminopyridin-4-yl)-2-methyl-3H-imidazo[4,5-b]pyridin-3-yl)-2-fluorophenyl)piperazin-1-yl)-5-oxopentyl)piperazin-1-yl)methyl)benzyl)amino)-1-oxoisoindolin-2-yl)piperidine-2,6-dione] |
| < 10 | < 10 | 30 to 60 | – | Cc1nc2ccc(-c3ccnc(N)c3)nc2n1-c1ccc(N2CCN(C(=O)CCCN3CCC(n4cc(CNc5cccc6c5C(=O)N(C5CCC(=O)NC5=O)C6=O)cn4)CC3)CC2)c(F)c1 (stereo not drawn) [Compound 16, 4-(((1-(1-(4-(4-(4-(5-(2-aminopyridin-4-yl)-2-methyl-3H-imidazo[4,5-b]pyridin-3-yl)-2-fluorophenyl)piperazin-1-yl)-4-oxobutyl)piperidin-4-yl)-1H-pyrazol-4-yl)methyl)amino)-2-(2,6-dioxopiperidin-3-yl)isoindoline-1,3-dione] |
| – | – | > 60 | 30 to 50 | Cc1nc2ccc(-c3ccnc(N)c3)nc2n1-c1ccc(N2CCN(c3ccc(N4CCC(C(=O)N5CCC(n6cc(CNc7cccc8c7C(=O)N(C7CCC(=O)NC7=O)C8=O)cn6)CC5)CC4)nc3)CC2)c(F)c1 (stereo not drawn) [Compound 26, 4-(((1-(1-(1-(5-(4-(4-(5-(2-aminopyridin-4-yl)-2-methyl-3H-imidazo[4,5-b]pyridin-3-yl)-2-fluorophenyl)piperazin-1-yl)pyridin-2-yl)piperidine-4-carbonyl)piperidin-4-yl)-1H-pyrazol-4-yl)methyl)amino)-2-(2,6-dioxopiperidin-3-yl)isoindoline-1,3-dione] |
| 10 to 100 | 10 to 100 | < 30 | – | Cc1nc2ccc(-c3ccnc(N)c3)nc2n1-c1ccc(N2CCN(C(=O)CCN3CCN(Cc4ccc(CNc5cccc6c5CN(C5CCC(=O)NC5=O)C6=O)cc4)CC3)CC2)c(F)c1 (stereo not drawn) [Compound 11, 3-(4-((4-((4-(3-(4-(4-(5-(2-aminopyridin-4-yl)-2-methyl-3H-imidazo[4,5-b]pyridin-3-yl)-2-fluorophenyl)piperazin-1-yl)-3-oxopropyl)piperazin-1-yl)methyl)benzyl)amino)-1-oxoisoindolin-2-yl)piperidine-2,6-dione] |
| 10 to 100 | < 10 | > 60 | – | Cc1nc2ccc(-c3ccnc(N)c3)nc2n1-c1ccc(N2CCN(CC#Cc3ccc(C4(C(=O)N5CCC(n6cc(CNc7cccc8c7C(=O)N(C7CCC(=O)NC7=O)C8=O)cn6)CC5)CCC4)cc3)CC2)c(F)c1 (stereo not drawn) [Compound 28, 4-(((1-(1-(1-(4-(3-(4-(4-(5-(2-aminopyridin-4-yl)-2-methyl-3H-imidazo[4,5-b]pyridin-3-yl)-2-fluorophenyl)piperazin-1-yl)prop-1-yn-1-yl)phenyl)cyclobutane-1-carbonyl)piperidin-4-yl)-1H-pyrazol-4-yl)methyl)amino)-2-(2,6-dioxopiperidin-3-yl)isoindoline-1,3-dione] |

Reference: patent US20260183407A1, “DYRK/CLK PROTACS AND USES THEREOF” (Arizona Board of Regents on Behalf of the University of …, priority 2022, published 2026)
